Patent US12037344B2, “NLRP3 modulators” (INNATE TUMOR IMMUNITY, INC., priority 2018, dated 2024)

Assays:
THP-1 cells = assay: Measurement of IL-1β production, hTRF protocol (second alternative procedure), THP-1 cells; type: cell-based, human; settings: Homo sapiens, THP-1, IL-1β production, human cells; read-out: NLRP3 hILIB EC50
Outline: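 Compounds, dilution series starting at a final 10 μM, were incubated 2 hours at 37° C with PMA-differentiated THP-1 cells (50 ng/ml overnight; 50,000 cells/well, 2% FBS RPMI). Released IL-1β quantified in supernatant by hTRF kit with 1:40 antibody dilution, 4° C overnight, 665/615 nm ratio.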

TLR7 = biological target: T1, TLR7 (Homo sapiens, UniProt Q9NYK1); assay: In vitro human TLR7 binding reporter assay (HEK-Blue, NF-kB/AP1-inducible SEAP); type: cell-based; settings: activity range, read-out: TLR7 Agonist EC50
T1 construct: human HEK-Blue cells co-expressing a TLR7 or TLR8 gene
T1 sequence (Q9NYK1 27-1049): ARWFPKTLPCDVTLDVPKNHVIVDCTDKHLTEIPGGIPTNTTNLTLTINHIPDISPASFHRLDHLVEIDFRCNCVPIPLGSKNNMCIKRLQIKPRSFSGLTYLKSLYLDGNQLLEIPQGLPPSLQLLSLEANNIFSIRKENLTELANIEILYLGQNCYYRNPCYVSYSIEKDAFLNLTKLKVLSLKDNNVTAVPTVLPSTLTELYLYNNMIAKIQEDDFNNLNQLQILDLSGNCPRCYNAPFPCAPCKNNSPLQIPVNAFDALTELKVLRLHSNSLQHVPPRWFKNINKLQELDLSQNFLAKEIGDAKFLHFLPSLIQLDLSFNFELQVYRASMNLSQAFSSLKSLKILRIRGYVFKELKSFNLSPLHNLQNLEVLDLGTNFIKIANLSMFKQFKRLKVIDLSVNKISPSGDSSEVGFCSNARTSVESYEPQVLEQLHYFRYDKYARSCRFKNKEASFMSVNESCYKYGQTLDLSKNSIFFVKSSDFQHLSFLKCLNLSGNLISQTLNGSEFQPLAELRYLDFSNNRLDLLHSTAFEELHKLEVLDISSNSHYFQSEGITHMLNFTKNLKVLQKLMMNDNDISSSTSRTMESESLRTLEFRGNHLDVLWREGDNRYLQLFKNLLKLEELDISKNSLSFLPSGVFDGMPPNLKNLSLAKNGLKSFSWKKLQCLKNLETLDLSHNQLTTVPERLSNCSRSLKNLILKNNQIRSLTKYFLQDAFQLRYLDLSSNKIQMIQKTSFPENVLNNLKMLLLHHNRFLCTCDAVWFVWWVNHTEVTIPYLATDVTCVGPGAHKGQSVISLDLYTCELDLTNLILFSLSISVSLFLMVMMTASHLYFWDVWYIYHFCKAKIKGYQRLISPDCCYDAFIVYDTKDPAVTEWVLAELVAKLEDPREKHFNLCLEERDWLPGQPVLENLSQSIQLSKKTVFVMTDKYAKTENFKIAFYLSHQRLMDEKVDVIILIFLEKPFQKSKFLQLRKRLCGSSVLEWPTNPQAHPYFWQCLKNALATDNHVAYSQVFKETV
Outline: (§1)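 Cells are seeded and grown for 24 h. Compounds or DMSO are then added and incubated 18 h at 37 °C. Quanti-Blue is added, and SEAP is read after thirty minutes. EC50 values are normalized, with RLU from 50 μM reference standard setting 100% Ymax.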

TLR8 = biological target: T2, TLR8 (Homo sapiens, UniProt Q9NR97); assay: In vitro human TLR8 binding reporter assay (HEK-Blue, NF-kB/AP1-inducible SEAP); type: cell-based; settings: activity range, read-out: TLR8 Agonist EC50
T2 construct: human HEK-Blue cells co-expressing a TLR7 or TLR8 gene
T2 sequence (Q9NR97 27-1041): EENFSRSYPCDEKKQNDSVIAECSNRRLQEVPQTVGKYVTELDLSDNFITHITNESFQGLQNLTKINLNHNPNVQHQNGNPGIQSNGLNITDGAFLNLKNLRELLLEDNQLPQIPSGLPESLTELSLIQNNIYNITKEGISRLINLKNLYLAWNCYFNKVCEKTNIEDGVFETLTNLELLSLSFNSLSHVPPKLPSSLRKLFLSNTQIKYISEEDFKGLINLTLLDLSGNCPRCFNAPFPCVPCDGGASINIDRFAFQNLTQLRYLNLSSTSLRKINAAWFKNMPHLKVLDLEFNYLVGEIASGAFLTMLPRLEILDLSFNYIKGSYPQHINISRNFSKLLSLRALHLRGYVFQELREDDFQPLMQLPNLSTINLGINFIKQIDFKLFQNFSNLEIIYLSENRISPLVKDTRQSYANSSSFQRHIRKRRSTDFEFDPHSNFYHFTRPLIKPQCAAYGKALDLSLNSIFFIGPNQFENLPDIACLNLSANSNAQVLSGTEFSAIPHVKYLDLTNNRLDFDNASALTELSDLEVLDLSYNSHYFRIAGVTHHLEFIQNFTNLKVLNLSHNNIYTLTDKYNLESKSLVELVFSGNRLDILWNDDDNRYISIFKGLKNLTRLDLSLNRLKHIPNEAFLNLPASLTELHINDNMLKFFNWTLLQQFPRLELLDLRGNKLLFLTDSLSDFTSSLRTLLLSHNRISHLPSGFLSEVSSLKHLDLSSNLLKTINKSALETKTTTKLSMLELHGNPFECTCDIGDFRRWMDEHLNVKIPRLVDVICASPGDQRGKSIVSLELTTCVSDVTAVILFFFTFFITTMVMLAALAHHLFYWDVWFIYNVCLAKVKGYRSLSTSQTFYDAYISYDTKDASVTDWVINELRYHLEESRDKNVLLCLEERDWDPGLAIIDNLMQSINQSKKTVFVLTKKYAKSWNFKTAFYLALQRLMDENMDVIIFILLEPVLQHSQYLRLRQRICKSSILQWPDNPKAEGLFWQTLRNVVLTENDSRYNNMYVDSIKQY
Outline: as §1

| EC50 (THP-1 cells) | EC50 (TLR7) | EC50 (TLR8) | SMILES |
| --- | --- | --- | --- |
| 17.3 µM | > 100 µM | > 100 µM | COC1CCN(C(=O)CC(C)n2cc3c(N)nc4cc(-c5cc[nH]n5)ccc4c3n2)CC1 (stereo not drawn) [Example 623] |
| 19.9 µM | > 100 µM | > 100 µM | CC(CC(=O)NCC1CCOCC1)n1cc2c(N)nc3cc(-c4cc[nH]n4)ccc3c2n1 (stereo not drawn) [Example 624] |
